How the values were obtained:
Angiotensin II receptor = biological target: T1, Angiotensin II receptor (Rattus norvegicus, UniProt P29089+P25095+P35351); assay: Inhibition of [125I]AII binding to Angiotensin II receptor, type 1 of rat mesenteric arteries; type: protein assay
T1 sequence (P29089 whole entry): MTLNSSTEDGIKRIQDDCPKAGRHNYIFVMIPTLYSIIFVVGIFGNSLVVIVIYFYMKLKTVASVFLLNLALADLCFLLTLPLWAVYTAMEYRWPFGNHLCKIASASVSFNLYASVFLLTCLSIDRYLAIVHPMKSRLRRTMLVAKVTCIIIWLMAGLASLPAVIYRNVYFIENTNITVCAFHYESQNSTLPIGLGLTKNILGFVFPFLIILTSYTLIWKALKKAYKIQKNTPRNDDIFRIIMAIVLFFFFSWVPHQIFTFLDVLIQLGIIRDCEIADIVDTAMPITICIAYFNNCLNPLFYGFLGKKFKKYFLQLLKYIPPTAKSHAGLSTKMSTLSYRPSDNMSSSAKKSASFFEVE
T1 sequence (P25095 whole entry): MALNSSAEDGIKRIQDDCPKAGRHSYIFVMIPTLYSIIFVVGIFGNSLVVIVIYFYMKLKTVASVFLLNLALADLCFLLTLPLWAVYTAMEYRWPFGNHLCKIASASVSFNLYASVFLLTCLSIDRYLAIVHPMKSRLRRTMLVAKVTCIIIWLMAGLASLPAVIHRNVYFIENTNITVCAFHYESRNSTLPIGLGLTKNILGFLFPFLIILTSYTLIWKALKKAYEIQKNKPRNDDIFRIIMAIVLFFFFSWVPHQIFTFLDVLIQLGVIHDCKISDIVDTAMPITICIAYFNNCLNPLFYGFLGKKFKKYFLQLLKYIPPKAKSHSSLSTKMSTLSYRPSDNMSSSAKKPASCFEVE
T1 sequence (P35351 whole entry): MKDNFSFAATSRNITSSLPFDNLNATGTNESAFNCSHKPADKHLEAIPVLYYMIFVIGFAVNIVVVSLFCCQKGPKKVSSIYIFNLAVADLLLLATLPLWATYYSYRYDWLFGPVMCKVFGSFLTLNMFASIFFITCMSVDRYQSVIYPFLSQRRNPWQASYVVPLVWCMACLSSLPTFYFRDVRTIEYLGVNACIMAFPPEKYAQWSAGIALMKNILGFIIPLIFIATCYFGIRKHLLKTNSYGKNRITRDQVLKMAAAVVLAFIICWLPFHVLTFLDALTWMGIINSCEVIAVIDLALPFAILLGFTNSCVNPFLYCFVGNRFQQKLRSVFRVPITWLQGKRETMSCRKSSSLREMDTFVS

[1] = biological target: Angiotensin II receptor (Rattus norvegicus) (UniProt P29089+P25095+P35351); assay: In vivo inhibition of pressor response to angiotensin II in conscious normotensive rats; type: functional, organism-based

| IC50 (Angiotensin II receptor) [nM] | ID50 [1] [mg/kg] | Structure (SMILES) |
| --- | --- | --- |
| 0.4 | 0.2 | CCCCc1ncc(/C=C(\Cc2cccs2)C(=O)O)n1Cc1ccc(-c2nn[nH]n2)cc1 |
| 4530 | – | CCCCc1ncc(/C=C(\Cc2cccs2)C(=O)O)n1Cc1ccccc1 |
| 163 | 2 | CC(C)Cc1ncc(/C=C(\Cc2cccs2)C(=O)O)n1Cc1ccc(C(=O)O)cc1 |
| 33.6 | – | CC(C)CCc1ncc(/C=C(\Cc2cccs2)C(=O)O)n1Cc1ccc(C(=O)O)cc1 |
| 39 | – | CCCCc1ncc(/C=C(\Cc2cccs2)C(=O)O)n1Cc1ccc(C(=O)OC)cc1 |
| 6000 | – | CCCCc1ncc(/C=C(\Cc2cccs2)C(=O)O)n1Cc1ccccc1C(=O)O |
| 230 | 3.5 | CCCCc1ncc(/C=C(\Cc2cccs2)c2nn[nH]n2)n1Cc1ccccc1[N+](=O)[O-] |
| 1270 | – | CCCCc1ncc(/C=C(\Cc2cccs2)C(=O)OCC)n1Cc1ccc(C(=O)OCC)cc1 |
| – | > 3 | CCCCc1ncc(C/C(=C/c2cccs2)C(=O)O)n1Cc1ccc(C(=O)O)cc1 |
| 570 | – | CC/C=C/c1ncc(/C=C(\Cc2cccs2)C(=O)O)n1Cc1ccccc1Cl |
| 4.5 | > 3 | CCCCc1ncc(/C=C(\Cc2cccs2)C(=O)O)n1Cc1ccc(S(N)(=O)=O)cc1 |
| 46 | 2.8 | CCCCc1ncc(/C=C(\Cc2cccs2)C(=O)O)n1Cc1cccc(Cl)c1Cl |
| 35 | 0.68 | CCCCc1ncc(/C=C(\Cc2cccs2)C(=O)O)n1Cc1cc(Cl)c(C(=O)O)cc1Cl |
| 60 | 0.84 | CCCCc1ncc(/C=C(\Cc2cccs2)C(=O)O)n1Cc1ccc(CC(=O)O)cc1 |
| 248 | – | CCCCc1cnc(/C=C(\Cc2cccs2)C(=O)O)n1Cc1ccc(C(=O)O)cc1 |
| 391 | – | CCCCc1ncc(/C=C/C(=O)O)n1Cc1ccc(C(=O)O)cc1 |
| 94.2 | – | CCCCc1ncc(/C=C(\Cc2cccs2)C(N)=O)n1Cc1ccc(C(N)=O)cc1 |
| 1 | 0.12 | CCCCc1ncc(/C=C(\Cc2cccs2)C(=O)O)n1Cc1ccc(C(=O)O)c(Cl)c1 |
| 6.6 | 0.62 | CCCCc1ncc(/C=C(\Cc2cccs2)C(=O)O)n1Cc1ccc(-c2ccccc2C(=O)O)cc1 |
| 33.8 | – | CCCCc1ncc(/C=C(\CC2CCCS2)C(=O)O)n1Cc1ccc(C(=O)O)cc1 (centres undefined) |
| – | 0.24 | CCCCc1ncc(/C=C(\CCc2cccs2)C(=O)O)n1Cc1ccc(C(=O)O)cc1 |

| IC50 (Angiotensin II receptor) [nM] | ID50 [1] [mg/kg] | Structure (SMILES) |
| --- | --- | --- |
| – | 0.08 | CCCCc1ncc(/C=C(\Cc2cccs2)C(=O)O)n1Cc1ccc(C(=O)O)cc1 (stereo in doubt; 2) |
| – | 3.6 | CCCCc1ncc(/C=C(\Cc2cccs2)C(=O)O)n1Cc1ccccc1Cl |
| 1.45 | 0.06 | CCCCc1ncc(/C=C(\Cc2cccs2)C(=O)O)n1Cc1ccc(C(=O)O)cc1Cl |
| 123 | 5.7 | CCCCCCc1ncc(/C=C(\Cc2cccs2)C(=O)O)n1Cc1ccccc1Cl |
| 4.26 | – | CCCCc1ncc(/C=C(\Cc2ccccc2)C(=O)O)n1Cc1ccc(C(=O)O)cc1 |
| 620 | – | CCCCc1ncc(/C=C(\Cc2cccs2)C(=O)O)n1Cc1ccc([N+](=O)[O-])cc1 |
| 7350 | 15 | CCCCc1ncc(/C=C(\Cc2cccs2)C(=O)O)n1Cc1ccccc1OC |
| – | 8 | CCCCc1ncc(/C=C(\Cc2cccs2)c2nn[nH]n2)n1Cc1ccccc1C(F)(F)F |
| 310 | 8 | CCCCc1ncc(/C=C(\Cc2cccs2)c2nn[nH]n2)n1Cc1ccccc1Cl |
| 130 | – | CCCCc1ncc(/C=C(\Cc2cccs2)C(=O)O)n1Cc1cccc(OC)c1[N+](=O)[O-] |
| 27.6 | – | CCCCc1ncc(/C=C(\Cc2cccs2)C(=O)O)n1Cc1ccc(C(=O)OCC)cc1 |
| 0.15 | 0.06 | CCCCc1ncc(/C=C(\Cc2cccs2)C(=O)O)n1Cc1ccc(C(=O)O)cc1[N+](=O)[O-] |
| 127 | 8.1 | CCCc1ncc(/C=C(\Cc2cccs2)C(=O)O)n1Cc1ccccc1Cl |
| 416 | – | CCCCc1ncc(/C=C(/C(=O)O)C(C)(C)c2cccs2)n1Cc1ccc(C(=O)O)cc1 |
| 4.6 | 0.12 | CCCCc1ncc(/C=C(\Cc2cccs2)C(=O)O)n1Cc1ccc(C(=O)O)c(C(=O)O)c1 |
| – | 0.33 | CCCC/C(=C\c1cnc(CCCC)n1Cc1ccc(C(=O)O)cc1)C(=O)O |
| 118 | – | CCCCc1ncc(/C=C(\Cc2cccs2)C(=O)O)n1Cc1ccc(C#N)cc1 |
| 0.59 | 0.15 | CCCCc1ncc(/C=C(\Cc2cccs2)C(=O)O)n1Cc1ccc(C(=O)O)c(O)c1 |
| > 10 | – | CCCc1cccc(/C=C(\Cc2cccs2)C(=O)O)c1Cc1ccc(C(=O)O)cc1 |
| 250 | – | CCCCc1ncc(/C=C(\Cc2cccs2)C(=O)O)n1-c1ccc(C(=O)O)cc1 |
| 53 | 0.24 | CCCCc1ncc(CC(Cc2cccs2)C(=O)O)n1Cc1ccc(C(=O)O)cc1 (centres undefined) |

| IC50 (Angiotensin II receptor) [nM] | ID50 [1] [mg/kg] | Structure (SMILES) |
| --- | --- | --- |
| 5 | 0.16 | CCCc1ncc(/C=C(\Cc2cccs2)C(=O)O)n1Cc1ccc(C(=O)O)cc1 |
| 2.5 | 0.18 | CCCCc1ncc(/C=C(\Cc2cccs2)C(=O)O)n1Cc1ccc(C(=O)O)c(-c2ccccc2)c1 |
| 21 | – | CCCCc1ncc(/C=C(\Cc2cccs2)C(N)=O)n1Cc1ccc(C(=O)O)cc1 |
| 15 | – | CCCc1ncc(/C=C(\Cc2cccs2)C(=O)O)n1Cc1ccccc1[N+](=O)[O-] |
| 260 | 3.4 | CCCCc1ncc(/C=C(\Cc2cccs2)C(=O)O)n1Cc1ccccc1C(F)(F)F |
| 22 | – | CCCCc1ncc(/C=C(\Cc2cccs2)C(=O)O)n1Cc1ccccc1C#N |
| 180 | 8 | CCCCc1ncc(/C=C(\Cc2cccs2)C(=O)O)n1Cc1cccc(OC)c1 |
| 63 | – | CCCCc1ncc(/C=C(\Cc2cccs2)C(=O)O)n1CCc1ccc(C(=O)O)cc1 |
| 43 | – | CCCCCCc1ncc(/C=C(\Cc2cccs2)C(=O)O)n1Cc1ccccc1[N+](=O)[O-] |
| 3.3 | – | CCCCc1ncc(/C=C(\Cc2cccs2)C(=O)O)n1Cc1cccc(C(=O)O)c1 |
| 66 | – | CCCCc1ncc(/C=C(\Cc2cccs2)C(=O)O)n1Cc1ccc(OC)c(C)c1 |
| 1300 | 8 | CCCCc1ncc(/C=C(\Cc2cccs2)c2nn[nH]n2)n1Cc1cccc(Cl)c1Cl |
| 210 | 7 | CCCCc1ncc(/C=C(\Cc2cccs2)C(=O)O)n1Cc1cccc([N+](=O)[O-])c1 |
| 21 | – | CCCCc1ncc(/C=C(\Cc2cccs2)C(=O)O)n1Cc1ccc(O)c(C)c1 |
| 0.3 | 0.7 | CCCCc1ncc(/C=C(\Cc2cccs2)c2nn[nH]n2)n1Cc1ccc(C(=O)O)cc1 |
| 4.81 | – | CCCCc1ncc(/C=C(\Cc2cccs2)C(=O)NCC(=O)O)n1Cc1ccc(C(=O)O)cc1 |
| 34 | – | CCCCc1ncc(/C=C(\Cc2cccs2)C(=O)O)n1Cc1ccccc1O |
| 31 | 2.6 | CCCCc1ncc(/C=C(\Cc2cccs2)C(=O)O)n1Cc1ccccc1[N+](=O)[O-] |
| 0.56 | – | CCCCc1ncc(/C=C(\Cc2cccs2)C(=O)O)n1Cc1ccc(C(N)=O)cc1 |
| 0.8 | 0.6 | CCCCCCc1ncc(/C=C(\Cc2cccs2)C(=O)O)n1Cc1ccc(C(=O)O)cc1 |
